{"source": "paper PMC5598073", "about": "“A novel and efficient fungal delignification strategy based on versatile peroxidase for lignocellulose bioconversion” (Biotechnology for Biofuels, 2017)", "key": {"VP [1]": {"test_system": "T1, VP", "T1 construct": "native secreted enzyme purified from solid corn stover cultures; single band", "assay": "spectrophotometric oxidation, […] nm", "type": "biochemical, Physisporinus vitreus", "settings": "50 mM malonate pH 4.5, 0.1 mM H2O2, with or without 1 mM MnSO4 (not told per substrate)"}, "VP [2]": {"test_system": "T1, VP", "assay": "spectrophotometric oxidation, […] nm", "type": "biochemical, Physisporinus vitreus", "settings": "50 mM malonate pH 4.5, 0.1 mM H2O2, with or without 1 mM MnSO4 (not told per substrate); read-out: K m (mol L^-1) / VP"}, "Lac [3]": {"test_system": "T2, Lac", "T2 construct": "native secreted enzyme purified from solid corn stover cultures; single band", "assay": "spectrophotometric oxidation, […] nm", "type": "biochemical, Physisporinus vitreus", "settings": "50 mM malonate pH 4.5; read-out: K m (mol L^-1) / Lac"}, "Lac [4]": {"test_system": "Lac", "settings": "read-out: K m (mol L^-1) / Lac; 50 mM malonate pH 4.5"}, "VP [5]": {"test_system": "VP", "settings": "read-out: K m (mol L^-1) / VP; 50 mM malonate pH 4.5, 0.1 mM H2O2, with or without 1 mM MnSO4 (not told per substrate)"}, "VP [6]": {"test_system": "T1, VP", "assay": "spectrophotometric oxidation, […] nm", "type": "biochemical, Physisporinus vitreus", "settings": "50 mM malonate pH 4.5, 0.1 mM H2O2, with or without 1 mM MnSO4 (not told per substrate)", "remark": "listed apart in the source"}, "Lac [7]": {"test_system": "T2, Lac", "assay": "spectrophotometric oxidation, […] nm", "type": "biochemical, Physisporinus vitreus", "settings": "50 mM malonate pH 4.5; read-out: K m (mol L^-1) / Lac", "remark": "listed apart in the source"}, "VP [8]": {"test_system": "T1, VP", "assay": "spectrophotometric oxidation, […] nm", "type": "biochemical, Physisporinus vitreus", "settings": "50 mM malonate pH 4.5, 0.1 mM H2O2, with or without 1 mM MnSO4 (not told per substrate); read-out: K m (mol L^-1) / VP", "remark": "listed apart in the source"}}, "note": "Where two headings read alike, the source gives them in different places.", "data": [{"molecule": "Nc1c(N=Nc2ccc(S(=O)(=O)CCOS(=O)(=O)O)cc2)c(S(=O)(=O)O)cc2cc(S(=O)(=O)O)c(N=Nc3ccc(S(=O)(=O)CCOS(=O)(=O)O)cc3)c(O)c12", "note": "[RB5]", "values": [{"measurement": "Km", "setting": "VP [1]", "value": 14.2, "unit": "µM"}]}, {"molecule": "Cc1cccc(C)c1O", "note": "[2,6-DMP]", "values": [{"measurement": "Km", "setting": "VP [2]", "value": 44, "unit": "µM"}, {"measurement": "Km", "setting": "Lac [3]", "value": 280, "unit": "µM"}]}, {"molecule": "CCn1c(=NN=c2sc3cc(S(=O)(=O)O)ccc3n2CC)sc2cc(S(=O)(=O)O)ccc21", "note": "[ABTS]", "values": [{"measurement": "Km", "setting": "Lac [4]", "value": 13, "unit": "µM"}, {"measurement": "Km", "setting": "VP [5]", "value": 35, "unit": "µM"}]}, {"molecule": "COc1ccc(CO)cc1OC", "note": "[VA]", "values": [{"measurement": "Km", "setting": "VP [6]", "value": 213, "unit": "µM"}]}, {"molecule": "COc1ccccc1O", "note": "[Guaiacol]", "values": [{"measurement": "Km", "setting": "Lac [7]", "value": 900, "unit": "µM"}, {"measurement": "Km", "setting": "VP [8]", "value": 130, "unit": "µM"}]}]}
